In PubChem BioAssay (NCI) one finds TGI data, which are given here for eight compounds.

Usually TGI stands for the concentration at which net growth stops. Low values mean greater sensitivity of the cells, high ones lower sensitivity of the cells.

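Five compound concentrations were applied to cells in 96-well plates for 48 hours; endpoints were derived by simple linear interpolation of the resulting dose-response curve. At the TGI there is no net growth.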

Common to all, as to assay: DTP human tumour cell line panel, 48 h
Assay [1] deals with SK-MEL-28 melanoma.
In assay [2] the test system is CAKI-1 renal.
For assay [3], the system named is M19-MEL melanoma.
Assay [4] has as its system HL-60(TB) leukemia.
For assay [5], the system named is K-562 leukemia.
The subject of assay [6] is KM12 colon.
For assay [7], the system named is TK-10 renal.
The test system of assay [8] is SR leukemia.
Assay [9] deals with UACC-257 melanoma.
In assay [10] the test system is CCRF-CEM leukemia.
Assay [11] relates to A498 renal.
In assay [12] the test system is HCT-116 colon.
Assay [13] concerns EKVX NSCLC.
Assay [14] relates to RPMI-8226 leukemia.
In assay [15] the test system is HOP-92 NSCLC.
Assay [16] deals with SW-620 colon.
In assay [17] the test system is HCT-15 colon.
Assay [18] deals with MOLT-4 leukemia.
For assay [19], the system named is PC-3 prostate.
The test system of assay [20] is MDA-MB-231 breast.

With `NC(=S)NNC(=O)/C(=C/c1ccc(/C=C(\NC(=O)c2ccccc2)C(=O)NNC(N)=S)cc1)NC(=O)c1ccccc1`, the TGI in [1] is more than 100 µM; in assay [2], more than 100 µM; in assay [3] it was more than 100 µM; in [4], more than 31.6 µM; in assay [5] it was more than 31.6 µM; in assay [6], more than 100 µM. The TGI in [7] was more than 100 µM; in assay [8], more than 63 µM; in assay [9], more than 100 µM; in [10], more than 100 µM; in [11], more than 100 µM; in assay [12] it was more than 100 µM. The TGI in assay [13] was more than 100 µM; in assay [14], more than 70.2 µM; in [15], more than 100 µM; in assay [16], more than 100 µM; in [17], more than 100 µM; in assay [18], more than 50.8 µM.

In the case of `CC(=O)OCC(=O)[C@@]1(O)CC[C@H]2[C@@H]3CCC4=CC(=O)[C@H](C)C[C@]4(C)[C@H]3[C@@H](O)C[C@@]21C`, the TGI in assay [1], in assay [2], in [3], in assay [4], in assay [5] and in assay [6] was more than 100 µM throughout. In addition, the TGI in [7], in assay [8], in assay [9], in assay [10], in assay [11] and in assay [12] was more than 100 µM throughout. Moreover, the TGI in [13], in assay [14], in [15], in assay [16] and in [17] was more than 100 µM throughout.

As to `COc1cc(/C=C/C(=O)c2sc(-n3nc(-c4ccccc4)cc3-c3ccccc3)nc2C)ccc1O`, the TGI in [1], in [2], in assay [3], in assay [4], in [5] and in [6] was more than 100 µM each time. For the same compound, the TGI in assay [7], in assay [9], in assay [10], in assay [11], in assay [13] and in assay [14] was more than 100 µM each time. Also, the TGI in assay [15], in assay [16], in assay [17] and in [18] was more than 100 µM in each case.

Regarding `O=C(NO)c1ccc([N+](=O)[O-])cc1`, the TGI in assay [1] was more than 100 µM; in [2] it was more than 100 µM; in [3], more than 100 µM; in assay [4], 50.9 µM; in [5], more than 100 µM; in assay [6], more than 100 µM. Moreover, the concentration for total growth inhibition (TGI) in assay [7] was more than 100 µM; in assay [9], more than 100 µM; in [10] it was more than 100 µM; in [11] it was 85.4 µM; in [13], more than 100 µM; in [14], more than 100 µM. Also, the TGI in assay [16], in [17] and in assay [18] was more than 100 µM each time.

`COc1cc(NC(C)=O)c2[nH]c3c(C)cc(NC(C)=O)c(C)c3c2c1`: the TGI in assay [1], in assay [2], in assay [3], in assay [4], in assay [5] and in [6] was more than 100 µM each time. Further, the TGI in [7], in assay [10], in assay [11], in assay [12], in assay [13] and in assay [14] was more than 100 µM each time. Moreover, the TGI in assay [15], in assay [16], in [17] and in assay [18] was more than 100 µM in each case.

On to `CCOC(=O)CSc1ccnc(=O)[nH]1`, for which the TGI in assay [2], in [3], in assay [4], in assay [5], in assay [6] and in [7] was more than 100 µM each time. The TGI in assay [9], in assay [10], in [11], in assay [12], in assay [13] and in assay [14] was more than 100 µM in each case. In addition, the TGI in assay [16], in [17] and in assay [18] was more than 100 µM each time.

For the compound `Clc1cccc(Cl)c1C=NC12CC3CC(CC(C3)C1)C2`, the TGI in assay [1], in assay [2], in assay [4], in [5], in [6] and in assay [7] was more than 10 µM in each case. Besides, the TGI in assay [8], in assay [19], in [9], in assay [10], in [11] and in assay [20] was more than 10 µM in each case. Besides, the TGI in assay [12], in assay [13], in [14], in assay [15], in assay [16] and in assay [17] was more than 10 µM in each case. This compound also came in with a TGI in assay [18] of more than 10 µM.

In the case of `CCCCCCn1c(SCC)c2ccccc2c1-c1nc(F)nc(F)n1`, the TGI in assay [1], in assay [2], in [3], in assay [4], in [5] and in assay [6] was more than 100 µM in each case. In addition, the TGI in assay [7], in assay [8], in assay [9], in assay [10], in assay [12] and in assay [13] was more than 100 µM in each case. Further, the TGI in [14], in assay [15], in [16], in assay [17] and in assay [18] was more than 100 µM throughout.
